Test results published in ChEMBL document CHEMBL1909294, “Translating clinical findings into knowledge in drug safety evaluation--drug induced liver injury prediction system (DILIps)” (PLoS Comput Biol, 2011).

Tests used:
[1] = system: Hepatotoxicity;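 for HepSE Combined Scores: combined hepatic side effect score as listed in the training data of the Drug Induced Liver Injury Prediction System (DILIps)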;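 for HepSE cholecystitis: Cholecystitis-related hepatic side effect score drawn from the DILIps (drug-induced liver injury prediction) training data set; call rule not given here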;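 for HepSE elevated liver function tests: hepatic side effect score for raised liver function tests, as recorded in the DILIps training set used for predicting drug-induced liver injury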;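 for HepSE jaundice: Jaundice-related hepatic side-effect score drawn from the training data of the DILIps (drug-induced liver injury prediction system); call rule not given here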; for HepSE liver disease: call rule not given here;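 for HepSE liver fatty: hepatic side effect score for fatty liver, taken from the DILIps training set for predicting drug-induced liver injury; call rule not given here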;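 for HepSE liver function tests abnormal: hepatic side effect score taken from the DILIps (drug-induced liver injury prediction system) training data, here covering abnormal liver function test findings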
[2] = system: Hepatotoxicity; remark: listed apart in the source;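 for HepSE Combined Scores: combined hepatic side effect score as listed in the training data of the Drug Induced Liver Injury Prediction System (DILIps)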;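 for HepSE cholecystitis: Cholecystitis-related hepatic side effect score drawn from the DILIps (drug-induced liver injury prediction) training data set; call rule not given here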;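 for HepSE jaundice: Jaundice-related hepatic side-effect score drawn from the training data of the DILIps (drug-induced liver injury prediction system); call rule not given here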; for HepSE liver disease: call rule not given here;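 for HepSE liver fatty: hepatic side effect score for fatty liver, taken from the DILIps training set for predicting drug-induced liver injury; call rule not given here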;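 for HepSE liver function tests abnormal: hepatic side effect score taken from the DILIps (drug-induced liver injury prediction system) training data, here covering abnormal liver function test findings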
[3] = system: Hepatotoxicity; remark: listed apart in the source;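 for HepSE Combined Scores: combined hepatic side effect score as listed in the training data of the Drug Induced Liver Injury Prediction System (DILIps)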;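 for HepSE cholecystitis: Cholecystitis-related hepatic side effect score drawn from the DILIps (drug-induced liver injury prediction) training data set; call rule not given here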;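 for HepSE jaundice: Jaundice-related hepatic side-effect score drawn from the training data of the DILIps (drug-induced liver injury prediction system); call rule not given here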; for HepSE liver disease: call rule not given here;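 for HepSE liver fatty: hepatic side effect score for fatty liver, taken from the DILIps training set for predicting drug-induced liver injury; call rule not given here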;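 for HepSE liver function tests abnormal: hepatic side effect score taken from the DILIps (drug-induced liver injury prediction system) training data, here covering abnormal liver function test findings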
[4] = system: Hepatotoxicity; remark: listed apart in the source;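 for HepSE Combined Scores: combined hepatic side effect score as listed in the training data of the Drug Induced Liver Injury Prediction System (DILIps)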;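 for HepSE cholecystitis: Cholecystitis-related hepatic side effect score drawn from the DILIps (drug-induced liver injury prediction) training data set; call rule not given here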;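 for HepSE jaundice: Jaundice-related hepatic side-effect score drawn from the training data of the DILIps (drug-induced liver injury prediction system); call rule not given here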; for HepSE liver disease: call rule not given here;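 for HepSE liver fatty: hepatic side effect score for fatty liver, taken from the DILIps training set for predicting drug-induced liver injury; call rule not given here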;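 for HepSE liver function tests abnormal: hepatic side effect score taken from the DILIps (drug-induced liver injury prediction system) training data, here covering abnormal liver function test findings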
[5] = system: Hepatotoxicity; remark: listed apart in the source; for HepSE liver disease: call rule not given here
[6] = system: Hepatotoxicity; remark: listed apart in the source; for HepSE liver disease: call rule not given here
[7] = system: Hepatotoxicity; remark: listed apart in the source
[8] = system: Hepatotoxicity; remark: listed apart in the source
[9] = system: Hepatotoxicity; remark: listed apart in the source
[10] = system: Hepatotoxicity; remark: listed apart in the source
[11] = system: Hepatotoxicity; remark: listed apart in the source
[12] = system: Hepatotoxicity; remark: listed apart in the source
[13] = system: Hepatotoxicity; remark: listed apart in the source
[14] = system: Hepatotoxicity; remark: listed apart in the source

Question: Which results are given for `COCCCOc1ccnc(C[S+]([O-])c2nc3ccccc3[nH]2)c1C` (stereo not drawn) [RABEPRAZOLE]?
Answer: HepSE_cholecystitis [1]: 1; HepSE_liver disease [2]: 0; HepSE_liver function tests abnormal [3]: 1; HepSE_jaundice [4]: 1; HepSE_liver fatty [5]: 1; HepSE_Combined Scores [6]: 7; HepSE_elevated liver function tests [7]: 0; HepSE_hepatic failure [8]: 0; HepSE_bilirubinemia [9]: 0; HepSE_cholelithiasis [10]: 1; HepSE_hepatomegaly [11]: 0; HepSE_cirrhosis [12]: 1; HepSE_hepatic necrosis [13]: 0; HepSE_hepatitis [14]: 1

Question: For `O=C(c1ccc(OCCN2CCCCC2)cc1)c1c(-c2ccc(O)cc2)sc2cc(O)ccc12` [RALOXIFENE], which HepSE_cholecystitis [1] is on record?
Answer: 0

Question: What about the HepSE_liver disease [2] of the same compound?
Answer: 0

Question: What about the “HepSE_liver function tests abnormal” value [3] of the same compound?
Answer: 0

Question: And the HepSE_jaundice [4]?
Answer: 0

Question: What about the HepSE_liver fatty [5] of the same compound?
Answer: 0

Question: And the “HepSE_Combined Scores” value [6]?
Answer: 1

Question: What about the “HepSE_elevated liver function tests” value [7] of the same compound?
Answer: 0

Question: And the HepSE_hepatic failure [8]?
Answer: 0

Question: What about the HepSE_bilirubinemia [9] of the same compound?
Answer: 0

Question: And the HepSE_cholelithiasis [10]?
Answer: 1

Question: What about the HepSE_hepatomegaly [11] of the same compound?
Answer: 0

Question: And the HepSE_cirrhosis [12]?
Answer: 0

Question: What about the HepSE_hepatic necrosis [13] of the same compound?
Answer: 0

Question: And the HepSE_hepatitis [14]?
Answer: 0

Question: What does the source list for `Cc1nc2ccc(CN(C)c3ccc(C(=O)N[C@@H](CCC(=O)O)C(=O)O)s3)cc2c(=O)[nH]1` [RALTITREXED]?
Answer: HepSE_cholecystitis [1]: 0; HepSE_liver disease [2]: 0; HepSE_liver function tests abnormal [3]: 0; HepSE_jaundice [4]: 0; HepSE_liver fatty [5]: 0; HepSE_Combined Scores [6]: 1; HepSE_elevated liver function tests [7]: 0; HepSE_hepatic failure [8]: 1; HepSE_bilirubinemia [9]: 0; HepSE_cholelithiasis [10]: 0; HepSE_hepatomegaly [11]: 0; HepSE_cirrhosis [12]: 0; HepSE_hepatic necrosis [13]: 0; HepSE_hepatitis [14]: 0

Question: `CNC(=C[N+](=O)[O-])NCCSCc1ccc(CN(C)C)o1` [RANITIDINE] was tested. Which HepSE_cholecystitis [1] did it give?
Answer: 0

Question: And the HepSE_liver disease [2]?
Answer: 1

Question: What about the “HepSE_liver function tests abnormal” value [3] of the same compound?
Answer: 0

Question: What about the HepSE_jaundice [4] of the same compound?
Answer: 1

Question: What about the HepSE_liver fatty [5] of the same compound?
Answer: 0

Question: What about the “HepSE_Combined Scores” value [6] of the same compound?
Answer: 4

Question: What about the “HepSE_elevated liver function tests” value [7] of the same compound?
Answer: 0

Question: And the HepSE_hepatic failure [8]?
Answer: 1

Question: And the HepSE_bilirubinemia [9]?
Answer: 0

Question: What about the HepSE_cholelithiasis [10] of the same compound?
Answer: 0

Question: What about the HepSE_hepatomegaly [11] of the same compound?
Answer: 0

Question: And the HepSE_cirrhosis [12]?
Answer: 0

Question: What about the HepSE_hepatic necrosis [13] of the same compound?
Answer: 0

Question: What about the HepSE_hepatitis [14] of the same compound?
Answer: 1

Question: How did the HepSE_cholecystitis [1] turn out when `COc1ccccc1OCC(O)CN1CCN(CC(=O)Nc2c(C)cccc2C)CC1` (stereo not drawn) [RANOLAZINE] was run?
Answer: 0

Question: What about the HepSE_liver disease [2] of the same compound?
Answer: 0

Question: What about the “HepSE_liver function tests abnormal” value [3] of the same compound?
Answer: 0

Question: What about the HepSE_jaundice [4] of the same compound?
Answer: 0

Question: And the HepSE_liver fatty [5]?
Answer: 0

Question: And the “HepSE_Combined Scores” value [6]?
Answer: 0

Question: And the “HepSE_elevated liver function tests” value [7]?
Answer: 0

Question: What about the HepSE_hepatic failure [8] of the same compound?
Answer: 0

Question: And the HepSE_bilirubinemia [9]?
Answer: 0

Question: And the HepSE_cholelithiasis [10]?
Answer: 0

Question: What about the HepSE_hepatomegaly [11] of the same compound?
Answer: 0

Question: And the HepSE_cirrhosis [12]?
Answer: 0

Question: What about the HepSE_hepatic necrosis [13] of the same compound?
Answer: 0

Question: What about the HepSE_hepatitis [14] of the same compound?
Answer: 0

Question: For `C#CCN[C@@H]1CCc2ccccc21` [RASAGILINE], which HepSE_cholecystitis ([1]; Liver) is on record?
Answer: 0

Question: What about the HepSE_liver disease ([2]; Liver) of the same compound?
Answer: 0

Question: What about the “HepSE_liver function tests abnormal” value ([3]; Liver) of the same compound?
Answer: 1

Question: And the HepSE_jaundice ([4]; Liver)?
Answer: 1

Question: And the HepSE_liver fatty ([5]; Liver)?
Answer: 0

Question: What about the “HepSE_Combined Scores” value ([6]; Liver) of the same compound?
Answer: 2

Question: And the “HepSE_elevated liver function tests” value ([7]; Liver)?
Answer: 0

Question: And the HepSE_hepatic failure ([8]; Liver)?
Answer: 0

Question: What about the HepSE_bilirubinemia ([9]; Liver) of the same compound?
Answer: 0

Question: And the HepSE_cholelithiasis ([10]; Liver)?
Answer: 0

Question: And the HepSE_hepatomegaly ([11]; Liver)?
Answer: 0

Question: What about the HepSE_cirrhosis ([12]; Liver) of the same compound?
Answer: 0

Question: And the HepSE_hepatic necrosis ([13]; Liver)?
Answer: 0

Question: And the HepSE_hepatitis ([14]; Liver)?
Answer: 0

Question: Which results are given for `CCOc1cc(CC(=O)N[C@@H](CC(C)C)c2ccccc2N2CCCCC2)ccc1C(=O)O` [REPAGLINIDE]?
Answer: HepSE_cholecystitis [1]: 0; HepSE_liver disease [2]: 0; HepSE_liver function tests abnormal [3]: 0; HepSE_jaundice [4]: 1; HepSE_liver fatty [5]: 0; HepSE_Combined Scores [6]: 2; HepSE_elevated liver function tests [7]: 0; HepSE_hepatic failure [8]: 0; HepSE_bilirubinemia [9]: 0; HepSE_cholelithiasis [10]: 0; HepSE_hepatomegaly [11]: 0; HepSE_cirrhosis [12]: 0; HepSE_hepatic necrosis [13]: 0; HepSE_hepatitis [14]: 1

Question: Which results are given for `COC(=O)[C@H]1[C@H]2C[C@@H]3c4[nH]c5cc(OC)ccc5c4CCN3C[C@H]2C[C@@H](OC(=O)c2cc(OC)c(OC)c(OC)c2)[C@@H]1OC` [RESERPINE]?
Answer: HepSE_cholecystitis [1]: 0; HepSE_liver disease [2]: 0; HepSE_liver function tests abnormal [3]: 0; HepSE_jaundice [4]: 0; HepSE_liver fatty [5]: 0; HepSE_Combined Scores [6]: 0; HepSE_elevated liver function tests [7]: 0; HepSE_hepatic failure [8]: 0; HepSE_bilirubinemia [9]: 0; HepSE_cholelithiasis [10]: 0; HepSE_hepatomegaly [11]: 0; HepSE_cirrhosis [12]: 0; HepSE_hepatic necrosis [13]: 0; HepSE_hepatitis [14]: 0

Question: Which results are given for `CC1=C(/C=C/C(C)=C/C=C/C(C)=C/CO)C(C)(C)CCC1` [RETINOL]?
Answer: HepSE_cholecystitis ([1]; Liver): 0; HepSE_liver disease ([2]; Liver): 0; HepSE_liver function tests abnormal ([3]; Liver): 0; HepSE_jaundice ([4]; Liver): 0; HepSE_liver fatty ([5]; Liver): 0; HepSE_Combined Scores ([6]; Liver): 0; HepSE_elevated liver function tests ([7]; Liver): 0; HepSE_hepatic failure ([8]; Liver): 0; HepSE_bilirubinemia ([9]; Liver): 0; HepSE_cholelithiasis ([10]; Liver): 0; HepSE_hepatomegaly ([11]; Liver): 0; HepSE_cirrhosis ([12]; Liver): 0; HepSE_hepatic necrosis ([13]; Liver): 0; HepSE_hepatitis ([14]; Liver): 0

Question: How did the HepSE_cholecystitis [1] turn out when `NC(=O)c1ncn([C@@H]2O[C@H](CO)[C@@H](O)[C@H]2O)n1` [RIBAVIRIN] was run?
Answer: 0

Question: And the HepSE_liver disease [2]?
Answer: 0

Question: And the “HepSE_liver function tests abnormal” value [3]?
Answer: 0

Question: And the HepSE_jaundice [4]?
Answer: 0

Question: What about the HepSE_liver fatty [5] of the same compound?
Answer: 1

Question: And the “HepSE_Combined Scores” value [6]?
Answer: 4

Question: What about the “HepSE_elevated liver function tests” value [7] of the same compound?
Answer: 0

Question: What about the HepSE_hepatic failure [8] of the same compound?
Answer: 1

Question: What about the HepSE_bilirubinemia [9] of the same compound?
Answer: 1

Question: What about the HepSE_cholelithiasis [10] of the same compound?
Answer: 0

Question: And the HepSE_hepatomegaly [11]?
Answer: 1

Question: What about the HepSE_cirrhosis [12] of the same compound?
Answer: 0

Question: And the HepSE_hepatic necrosis [13]?
Answer: 0

Question: What about the HepSE_hepatitis [14] of the same compound?
Answer: 0

Question: `CO[C@H]1/C=C/O[C@@]2(C)Oc3c(C)c(O)c4c(c3C2=O)C2=NC3(CCN(CC(C)C)CC3)NC2=C(NC(=O)/C(C)=C\C=C\[C@H](C)[C@H](O)[C@@H](C)[C@@H](O)[C@@H](C)[C@H](OC(C)=O)[C@@H]1C)C4=O` [RIFABUTIN] was tested. Which HepSE_cholecystitis ([1]; Liver) did it give?
Answer: 0

Question: And the HepSE_liver disease ([2]; Liver)?
Answer: 0

Question: And the “HepSE_liver function tests abnormal” value ([3]; Liver)?
Answer: 0

Question: What about the HepSE_jaundice ([4]; Liver) of the same compound?
Answer: 0

Question: And the HepSE_liver fatty ([5]; Liver)?
Answer: 0

Question: And the “HepSE_Combined Scores” value ([6]; Liver)?
Answer: 1

Question: What about the “HepSE_elevated liver function tests” value ([7]; Liver) of the same compound?
Answer: 0

Question: What about the HepSE_hepatic failure ([8]; Liver) of the same compound?
Answer: 0

Question: What about the HepSE_bilirubinemia ([9]; Liver) of the same compound?
Answer: 0

Question: And the HepSE_cholelithiasis ([10]; Liver)?
Answer: 0

Question: And the HepSE_hepatomegaly ([11]; Liver)?
Answer: 0

Question: And the HepSE_cirrhosis ([12]; Liver)?
Answer: 0

Question: And the HepSE_hepatic necrosis ([13]; Liver)?
Answer: 0

Question: What about the HepSE_hepatitis ([14]; Liver) of the same compound?
Answer: 1

Question: Which results are given for `CO[C@H]1/C=C/O[C@@]2(C)Oc3c(C)c(O)c4c(O)c(c(/C=N/N5CCN(C)CC5)c(O)c4c3C2=O)NC(=O)/C(C)=C\C=C\[C@H](C)[C@H](O)[C@@H](C)[C@@H](O)[C@@H](C)[C@H](OC(C)=O)[C@@H]1C` [RIFAMPIN]?
Answer: HepSE_cholecystitis [1]: 0; HepSE_liver disease [2]: 0; HepSE_liver function tests abnormal [3]: 1; HepSE_jaundice [4]: 1; HepSE_liver fatty [5]: 0; HepSE_Combined Scores [6]: 3; HepSE_elevated liver function tests [7]: 0; HepSE_hepatic failure [8]: 0; HepSE_bilirubinemia [9]: 0; HepSE_cholelithiasis [10]: 0; HepSE_hepatomegaly [11]: 0; HepSE_cirrhosis [12]: 0; HepSE_hepatic necrosis [13]: 0; HepSE_hepatitis [14]: 1
